Test results published in patent US9346761B2, “Arginine methyltransferase inhibitors and uses thereof” (Epizyme, Inc., priority 2013, dated 2016).
Where a name gives a salt, the structure may show the parent alone.

Biological target: T1, Human CARM1 (PRMT4) (Homo sapiens, UniProt Q86X55)
T1 construct: Flag-CARM1-His was eluted with 200 ug/ml FLAG peptide in buffer A; made in house; host or cells: HEK 293F cells (BacMam virus, pFastBacMam)
T1 sequence (Q86X55 with tags, fused parts or gaps isoform Q86X55-1): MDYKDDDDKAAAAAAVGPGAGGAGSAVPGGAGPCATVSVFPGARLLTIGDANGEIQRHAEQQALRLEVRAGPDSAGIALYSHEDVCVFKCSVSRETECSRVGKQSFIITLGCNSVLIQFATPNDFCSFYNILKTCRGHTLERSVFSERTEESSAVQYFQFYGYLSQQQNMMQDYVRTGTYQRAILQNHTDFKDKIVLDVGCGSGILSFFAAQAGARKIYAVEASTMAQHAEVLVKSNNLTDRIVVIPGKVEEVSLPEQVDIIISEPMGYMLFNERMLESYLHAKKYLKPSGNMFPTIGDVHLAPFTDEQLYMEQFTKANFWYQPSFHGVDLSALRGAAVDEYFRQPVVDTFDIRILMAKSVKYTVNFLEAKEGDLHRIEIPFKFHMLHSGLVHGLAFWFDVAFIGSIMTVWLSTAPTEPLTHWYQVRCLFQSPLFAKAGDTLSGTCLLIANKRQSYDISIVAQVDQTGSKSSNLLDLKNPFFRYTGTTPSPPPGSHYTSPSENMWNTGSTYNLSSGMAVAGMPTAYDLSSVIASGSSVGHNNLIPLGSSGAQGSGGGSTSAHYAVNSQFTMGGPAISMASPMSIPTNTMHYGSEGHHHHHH
Assay: CARM1 biochemical assay (3H-SAM Flashplate, peptide substrate)
From the text: General Materials. S-adenosylmethionine (SAM), S-adenosylhomocysteine (SAH), bicine, Tween20, dimethylsulfoxide (DMSO), bovine skin gelatin (BSG), sodium butyrate and Tris(2-carboxyethyl)phosphine hydrochloride solution (TCEP) were purchased from Sigma-Aldrich at the highest level of purity possible. ^3H-SAM was purchase from American Radiolabeled Chemicals with a specific activity of 80 Ci/mmol. 384-well streptavidin Flashplates were purchased from PerkinElmer.
Substrates. Peptide representative of human histone H3 residues 16-30 was synthesized with an N-terminal linker-affinity tag motif and a C-terminal amide cap by 21st Century Biochemicals.
Protein Expression. Recombinant baculovirus were generated according to Bac-to-Bac kit instructions (Life Technologies). […] Infections were carried out at 37° C. for 48 hours, harvested by centrifugation, and stored at −80° C. for purification.
Protein Purification. […] Column was washed with 500 mM NaCl in buffer A and Flag-CARM1-His was eluted with 200 ug/ml FLAG peptide in buffer A. Pooled fractions were dialyzed in 20 mM Tris, 150 mM NaCl, 5% glycerol and 1 mM DTT, pH 7.8.
General Procedure for CARM1 Enzyme Assays on Peptide Substrates. The assays were all performed in a buffer consisting of 20 mM Bicine (pH=7.6), 1 mM TCEP, 0.005% BSG, and 0.002% Tween 20, prepared on the day of use. […] DMSO (1 ul) was added to Columns 11, 12, 23, 24, rows A-H for the maximum signal control and 1 ul of SAH, a known product and inhibitor of CARM1, was added to columns 11, 12, 23, 24, rows I-P for the minimum signal control. A cocktail (40 ul) containing the CARM1 enzyme was added by Multidrop Combi (Thermo-Fisher). The compounds were allowed to incubate with CARM1 for 30 min at room temperature, then a cocktail (10 ul) containing ^3H-SAM and peptide was added to initiate the reaction (final volume=51 ul). […] The assays were stopped by the addition of non-radiolabeled SAM (10 ul) to a final concentration of 300 uM, which dilutes the ^3H-SAM to a level where its incorporation into the peptide substrate is no longer detectable. 50 ul of the reaction in the 384-well polypropylene plate was then transferred to a 384-well Flashplate and the biotinylated peptides were allowed to bind to the streptavidin surface for at least 1 hour before being washed once with 0.1% Tween20 in a Biotek ELx405 plate washer. The plates were then read in a PerkinElmer TopCount plate reader to measure the quantity of ^3H-labeled peptide bound to the Flashplate surface, measured as disintegrations per minute (dpm) or alternatively, referred to as counts per minute (cpm).
Where dpm=disintegrations per minute, cmpd=signal in assay well, and min and max are the respective minimum and maximum signal controls.
Where top and bottom are the normally allowed to float, but may be fixed at 100 or 0 respectively in a 3-parameter fit. The Hill Coefficient normally allowed to float but may also be fixed at 1 in a 3-parameter fit. Y is the % inhibition and X is the compound concentration.

Row | SMILES | IC50 [µM]
1 | C=CCn1cc(CN(C)CCNC)c(-c2ccc(OC(C)C)cc2)n1 [Compound 218] | 0.101 to 1
2 | CNCCN(C)Cc1cn(C)nc1-c1ccc(OC(C)C)cc1 [Compound 243, N1-((3-(4-isopropoxyphenyl)-1-methyl-1H-pyrazol-4-yl)methyl)-N1,N2-dimethylethane-1,2-diamine] | 0.101 to 1
3 | CNCCN(C)Cc1cn(CCCC(O)CO)nc1-c1ccc(F)cc1 (centres unmarked) [Compound 30] | 3.01 to 10
4 | CNCCN(C)Cc1cn(CC(N)=O)nc1-c1ccc(OC(C)C)cc1 [Compound 251] | 1.01 to 3
5 | C=CCn1ncc(CN(C)CCNC)c1-c1ccc(OC(C)C)cc1 [Compound 219] | 0.101 to 1
6 | CNCCN(C)Cc1cn(C2CCCCC2)nc1-c1ccc(OC(C)C)cc1 [Compound 256] | 0.101 to 1
7 | C=CC(=O)Nc1cccc(-c2[nH]ncc2CN(C)CCNC)c1 [Compound 258] | 1.01 to 3
8 | CNCCN(C)Cc1c[nH]nc1-c1ccccc1C(F)(F)F [Compound 38] | > 10
9 | CNCCN(C)Cc1cnn(C2CC2)c1-c1ccc(F)cc1 [Compound 14] | 0.101 to 1
10 | CNCCN(C)Cc1cn(C2CC2)nc1-c1ccc(F)cc1 [Compound 13] | 1.01 to 3
11 | CNCCN(C)Cc1cn[nH]c1-c1cc(F)cc(F)c1 [Compound 18] | 0.101 to 1
12 | CNCCN(C)Cc1c[nH]nc1-c1cccc([N+](=O)[O-])c1 [Compound 21] | 1.01 to 3
13 | CNCCN(C)Cc1cn(CCOC)nc1-c1ccc(OC(C)C)cc1 [Compound 253, N1-((3-(4-isopropoxyphenyl)-1-(2-methoxyethyl)-1H-pyrazol-4-yl)methyl)-N1,N2-dimethylethane-1,2-diamine hydrochloride] | 1.01 to 3
14 | CNCCN(C)Cc1c[nH]nc1-c1cccc(OC)c1 [Compound 24] | 1.01 to 3
15 | CNCCN(C)Cc1cnn(CCCC(O)CO)c1-c1ccc(F)cc1 (centres unmarked) [Compound 31] | 1.01 to 3
16 | CNCCN(C)Cc1c[nH]nc1-c1ccc(O)cc1 [Compound 27] | 1.01 to 3
17 | CNCCN(C)Cc1c[nH]nc1-c1ccc(N)cc1 [Compound 33] | 1.01 to 3
18 | CNCCN(C)Cc1c[nH]nc1-c1ccccc1OC [Compound 23] | 1.01 to 3
19 | CNCCN(C)Cc1c[nH]nc1-c1ccccc1OC(F)(F)F [Compound 40] | > 10
20 | CNCCN(C)Cc1cn(C2CCOC2)nc1-c1ccc(OC(C)C)cc1 (centres unmarked) [Compound 215] | 0.101 to 1
21 | CNCCN(C)Cc1c[nH]nc1-c1cccc(C#N)c1 [Compound 22] | 1.01 to 3
22 | CNCCN(C)Cc1cn[nH]c1-c1ccc(C#N)cc1 [Compound 17] | 1.01 to 3

Row | SMILES | IC50 [µM]
23 | CNCCN(C)Cc1cn(Cc2ccccn2)nc1-c1ccc(OC(C)C)cc1 [Compound 247] | 1.01 to 3
24 | C=C(C)C(=O)Nc1cccc(-c2[nH]ncc2CN(C)CCNC)c1 [Compound 257] | > 10
25 | CNCCN(C)Cc1c[nH]nc1-c1ccc(CO)cc1 [Compound 28] | 0.101 to 1
26 | CCn1ncc(CN(C)CCNC)c1-c1ccc(OC(C)C)cc1 [Compound 252] | 0.101 to 1
27 | CNCCN(C)Cc1cn(CC(=O)OC)nc1-c1ccc(OC(C)C)cc1 [Compound 248] | 3.01 to 10
28 | CNCCN(C)Cc1cnn(CC(=O)OC)c1-c1ccc(OC(C)C)cc1 [Compound 249] | 3.01 to 10
29 | CNCCN(C)Cc1cn(Cc2ccccc2)nc1-c1ccc(OC(C)C)cc1 [Compound 217] | 0.101 to 1
30 | CNCCN(C)Cc1c[nH]nc1-c1ccc(Oc2ccccc2)cc1 [Compound 37] | < 0.1
31 | CNCCN(C)Cc1c[nH]nc1-c1cccc(O)c1 [Compound 26] | 1.01 to 3
32 | CNCCN(C)Cc1cn(C2CCC2)nc1-c1ccc(OC(C)C)cc1 [Compound 254, N1-((1-cyclobutyl-3-(4-isopropoxyphenyl)-1H-pyrazol-4-yl)methyl)-N1,N2-dimethylethane-1,2-diamine hydrochloride] | 0.101 to 1
33 | CCNC(=O)c1cccc(-c2n[nH]cc2CN(C)CCNC)c1 [Compound 43] | 3.01 to 10
34 | CNCCN(C)Cc1c[nH]nc1-c1ccc(C)cc1C [Compound 29] | 3.01 to 10
35 | CNCCN(C)Cc1cnn(C2CCOC2)c1-c1ccc(OC(C)C)cc1 (centres unmarked) [Compound 216] | 0.101 to 1
36 | CNCCN(C)Cc1c[nH]nc1-c1ccc(OC)cc1 [Compound 25] | 1.01 to 3
37 | CCn1cc(CN(C)CCNC)c(-c2ccc(OC(C)C)cc2)n1 [Compound 213] | 0.101 to 1
38 | CNCCN(C)Cc1cnn(C2CCCC2)c1-c1ccc(OC(C)C)cc1 [Compound 255] | 1.01 to 3
39 | CNCCN(C)Cc1cn(C(C)C)nc1-c1ccc(F)cc1 [Compound 15] | 3.01 to 10
40 | CNCCN(C)Cc1cn(Cc2cccnc2)nc1-c1ccc(OC(C)C)cc1 [Compound 246] | 1.01 to 3
41 | CNCCN(C)Cc1cn(C2CCCC2)nc1-c1ccc(OC(C)C)cc1 [Compound 214] | 0.101 to 1
42 | CCCc1ccc(-c2n[nH]cc2CN(C)CCNC)cc1 [Compound 20] | 0.101 to 1
43 | CNCCN(C)Cc1cnn(C(C)C)c1-c1ccc(F)cc1 [Compound 16] | 3.01 to 10
44 | CNCCN(C)Cc1cn(CC(=O)O)nc1-c1ccc(OC(C)C)cc1 [Compound 250] | > 10
